# Test results reported in US7713994B2 (Wyeth LLC, priority 2005, dated 2010).
# pIC50: −log10 of the molar value.
# Molecular target: T1, cyclin D1/cdk 4 enzyme (Homo sapiens, UniProt P11802)
# T1 construct: made in house; host or cells: Sf9 insect cells, recombinant baculovirus
# Test: CDK4 ELISA kinase assay (phospho-Rb ser 795 detection)
# Format: biochemical
# Settings: In Vitro Enzyme Assay, cyclin D1/cdk 4, read-out: CDK4 IC50
# Experimental: • 1. High-binding ELISA microtiter plates (Costar) were coated with 40 μl of the kinase substrate (GST fusion of C-terminal fragment of the retinoblastoma susceptibility gene product) diluted to 10 μg/ml in tris-buffered saline (TBS), overnight at 4° C. • 2. Non-specific binding sites were blocked for 1 hour at 4° C. with Superblock in TBS (Pierce), and the plates rinsed with water. • 3. For the screen, 1.5 μl of test compound (200 μg/ml stock in 20% DMSO/20 mM HEPES, pH 7.5) was added to each well. Final dose of the test compound in the assay was 10 ug/ml. […] The kinase reaction (30 μl) was dispensed into each well. Reactions contained 200 μM ATP, 0.5 mg/ml bovine serum albumin (BSA; Sigma), and 0.5 μl partially purified cyclin D1/cdk 4 enzyme*. The enzyme complex is expressed in insect cells (Sf9) infected with recombinant baculovirus and partially purified using ammonium sulfate fractionation. Reaction volumes were adjusted to 30 μl with kinase assay buffer (50 mM HEPES, pH 7.5, 10 mM MgCl2, 5% glycerol, 10 mM 2-mercaptoethanol). • *: For CDK2 assay, 1.0 μl cyclin E/CDK2 enzyme (diluted 1:1000 in kinase assay buffer) was used. The enzyme is isolated from insect cells (Sf9) infected with recombinant baculovirus and partially purified using ammonium sulfate fractionation. For CDK1 assay, 0.08 μl cyclin B/CDK1 enzyme [New England BioLabs; the enzyme is isolated from insect cells (Sf9) infected with recombinant baculovirus carrying human cdc 2 and human cyclin B] was used.
# […] • 5. Plates were incubated at 30° C. for 1 hour. • 6. The reaction mixture was removed by aspiration and replaced with 250 μl TBS containing 0.1% Tween-20 and 5% nonfat dry milk (blocking buffer). The plates were incubated at 4° C. for 1 hour. • 7. The blocking buffer was removed and replaced with 50 μl of the primary antibody [anti-phospho-Rb ser 795 (New England BioLabs) diluted 1:1000 in blocking buffer]. Incubation was at 4° C. for 16-20 hours. • 8. The wells were rinsed 3 times with 250 μl of TBS containing 0.1% Tween-20 followed by the addition of 50 μl of secondary antibody [anti-rabbit IgG conjugated to horseradish peroxidase (Amersham Life Science) diluted 1:1000 in blocking buffer]. • 9. After a 1 hour incubation at room temperature, the wells were rinsed 3 times with 250 μl of TBS/0.1% Tween 20. • 10. TMB (3,3′,5,5′-tetramethylbenzidine dihydrochloride) substrate solution (100 μl; Pierce) was added to each well and the color development reaction allowed to proceed 5-10 minutes at room temperature with shaking. The reaction was stopped by the addition of 2N sulfuric acid (100 μl) and the absorbance values read at 450 nm in a microplate reader (Molecular Devices). Analysis of Results: • 1. The percentage of the absorbance value in wells containing the test compound relative to control wells (no test agent) was determined. • 2. IC50 values of selected compounds were determined from inhibition curves, after subtracting background values (no substrate).
# T1 sequence (P11802 whole entry, species assumed): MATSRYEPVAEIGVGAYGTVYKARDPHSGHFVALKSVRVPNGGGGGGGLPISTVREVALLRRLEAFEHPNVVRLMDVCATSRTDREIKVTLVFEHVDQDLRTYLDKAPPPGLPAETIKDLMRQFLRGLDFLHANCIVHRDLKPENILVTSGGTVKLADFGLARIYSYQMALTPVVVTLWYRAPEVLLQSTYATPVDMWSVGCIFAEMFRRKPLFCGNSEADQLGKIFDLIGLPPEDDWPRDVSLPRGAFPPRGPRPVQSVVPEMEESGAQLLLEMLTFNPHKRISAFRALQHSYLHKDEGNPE
# T1 sequence (P24385 whole entry partner, species assumed): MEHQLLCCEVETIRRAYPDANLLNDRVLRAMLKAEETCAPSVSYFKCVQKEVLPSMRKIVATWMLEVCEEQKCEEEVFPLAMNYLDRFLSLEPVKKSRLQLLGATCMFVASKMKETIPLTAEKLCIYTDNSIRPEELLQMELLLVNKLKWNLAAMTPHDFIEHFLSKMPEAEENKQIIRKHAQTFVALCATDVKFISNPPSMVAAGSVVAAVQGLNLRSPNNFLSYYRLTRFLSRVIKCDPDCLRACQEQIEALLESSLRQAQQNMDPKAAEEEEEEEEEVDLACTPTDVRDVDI
row,SMILES,pIC50
1,"O=C1NC(=O)c2ccccc2C1=CNc1ccc(N2CCN(CCO)CC2)cc1 [Example 598, 4-({4-[4-(2-Hydroxy-ethyl)-piperazin-1-yl]-phenylamino}-methylene)-4H-isoquinoline-1,3-dione]",4.48
2,"CCN(CC)CCN1CCN(c2ccc(NC=C3C(=O)NC(=O)c4ccccc43)cc2)CC1 [Example 599, 4-({4-[4-(2-Diethylamino-ethyl)-piperazin-1-yl]-phenylamino}-methylene)-4H-isoquinoline-1,3-dione]",4.40
3,"CC(C)N1CCN(c2ccc(NC=C3C(=O)NC(=O)c4ccccc43)cc2)CC1 [Example 600, 4-{[4-(4-Isopropyl-piperazin-1-yl)-phenylamino]-methylene}-4H-isoquinoline-1,3-dione]",4.64
4,"O=C1NC(=O)c2ccccc2C1=CNc1ccc(N2CCN(C3CCCC3)CC2)cc1 [Example 601, 4-{[4-(4-Cyclopentyl-piperazin-1-yl)-phenylamino]-methylene}-4H-isoquinoline-1,3-dione]",4.92
5,"O=C1NC(=O)c2ccccc2C1=CNc1ccc(N2CCN(CC3CCC3)CC2)cc1 [Example 602, 4-{[4-(4-Cyclobutylmethyl-piperazin-1-yl)-phenylamino]-methylene}-4H-isoquinoline-1,3-dione]",4.67
6,"O=C1NC(=O)c2ccccc2C1=CNCc1cccc(NCC(F)(F)F)c1 [Example 603, 4-{[3-(2,2,2-Trifluoro-ethylamino)-benzylamino]-methylene}-4H-isoquinoline-1,3-dione]",4.32
7,"O=C1NC(=O)c2ccccc2C1=CNc1ccc(CNS(=O)(=O)CC(F)(F)F)cc1 [Example 605, 2,2,2-Trifluoro-ethanesulfonic acid 4-[(1,3-dioxo-2,3-dihydro-1H-isoquinolin-4-ylidenemethyl)-amino]-benzylamide]",4.66
8,"CCNS(=O)(=O)c1ccc(CN/C=C2\C(=O)NC(=O)c3ccccc32)cc1 [Example 606, 4-{[(1,3-Dioxo-2,3-dihydro-1H-isoquinolin-4-ylidenemethyl)-amino]-methyl}-N-ethyl-benzenesulfonamide]",4.67
9,"O=C1NC(=O)c2ccccc2C1=CNCc1ccc(S(=O)(=O)NCc2cccnc2)cc1 [Example 607, 4-{[(1,3-Dioxo-2,3-dihydro-1H-isoquinolin-4-ylidenemethyl)-amino]-methyl}-N-pyridin-3-ylmethyl-benzenesulfonamide]",4.34
10,"O=C1NC(=O)c2ccccc2C1=CNc1ccc(CN2CCCC(O)C2)cc1 (stereo not drawn) [Example 615, 4-{[4-(3-Hydroxy-piperidin-1-ylmethyl)-phenylamino]-methylene}-4H-isoquinoline-1,3-dione]",4.59
11,"O=C1NC(=O)c2ccccc2C1=CNc1ccncc1 [Example 618, 4-(Pyridin-4-ylaminomethylene)-4H-isoquinoline-1,3-dione]",4.40
12,"NS(=O)(=O)c1ccc(CNC=C2C(=O)NC(=O)c3ccc(C=CCn4ccnc4)cc32)cc1 [Example 657, 4-({[6-(3-Imidazol-1-yl-propenyl)-1,3-dioxo-2,3-dihydro-1H-isoquinolin-4-ylidenemethyl]-amino}-methyl)-benzenesulfonamide]",5.66
13,"O=C1NC(=O)c2ccc(C=CCN3CCNCC3)cc2C1=CNCc1ccc(O)c(O)c1 [Example 666, 4-[(3,4-Dihydroxy-benzylamino)-methylene]-6-(3-piperazin-1-yl-propenyl)-4H-isoquinoline-1,3-dione]",5.60

# The remaining lines, values ahead:
row,pIC50,SMILES
1,4.63,"CNc1ccc(CN/C=C2\C(=O)NC(=O)c3ccccc32)cc1 [Example 604, 4-[(4-Methylamino-benzylamino)-methylene]-4H-isoquinoline-1,3-dione]"
2,4.31,"CS(=O)(=O)NCc1ccc(NC=C2C(=O)NC(=O)c3ccccc32)cc1 [Example 612, N-{4-[(1,3-Dioxo-2,3-dihydro-1H-isoquinolin-4-ylidenemethyl)-amino]-benzyl}-methanesulfonamide]"
3,4.48,"CCS(=O)(=O)NCc1ccc(N/C=C2\C(=O)NC(=O)c3ccccc32)cc1 [Example 613, Ethanesulfonic acid 4-[(1,3-dioxo-2,3-dihydro-1H-isoquinolin-4-ylidenemethyl)-amino]-benzylamide]"
4,4.60,"CCCN(CCC)Cc1ccc(NC=C2C(=O)NC(=O)c3ccccc32)cc1 [Example 614, 4-[(4-Dipropylaminomethyl-phenylamino)-methylene]-4H-isoquinoline-1,3-dione]"
5,4.83,"COCCN(C)Cc1ccc(N/C=C2\C(=O)NC(=O)c3ccccc32)cc1 [Example 616, 4-[(4-{[(2-Methoxy-ethyl)-methyl-amino]-methyl}-phenylamino)-methylene]-4H-isoquinoline-1,3-dione]"
6,4.84,"O=C1NC(=O)c2ccccc2C1=CNc1cccc2c(O)cccc12 [Example 619, 4-[(5-Hydroxy-naphthalen-1-ylamino)-methylene]-4H-isoquinoline-1,3-dione]"
7,4.43,"O=C1NC(=O)c2ccc(C=CCc3ccccc3)cc2C1=CNc1ccc(CN2CCCC2)cc1 [Example 622, 6-(3-Phenyl-propenyl)-4-[(4-pyrrolidin-1-ylmethyl-phenylamino)-methylene]-4H-isoquinoline-1,3-dione]"
8,4.60,"N#CCc1ccc(NC=C2C(=O)NC(=O)c3ccc(-c4cccc5ccccc45)cc32)cc1 [Example 623, {4-[(6-Naphthalen-1-yl-1,3-dioxo-2,3-dihydro-1H-isoquinolin-4-ylidenemethyl)-amino]-phenyl)-acetonitrile]"
9,4.89,"N#CCc1ccc(NC=C2C(=O)NC(=O)c3ccc(-c4ccc5ccccc5c4)cc32)cc1 [Example 624, {4-[(6-Naphthalen-2-yl-1,3-dioxo-2,3-dihydro-1H-isoquinolin-4-ylidenemethyl)-amino]-phenyl}-acetonitrile]"
10,4.83,"N#CCc1ccc(NC=C2C(=O)NC(=O)c3ccc(-c4cccc5cccnc45)cc32)cc1 [Example 625, {4-[(1,3-Dioxo-6-quinolin-8-yl-2,3-dihydro-1H-isoquinolin-4-ylidenemethyl)-amino]-phenyl}-acetonitrile]"
11,4.47,"N#CCc1ccc(NC=C2C(=O)NC(=O)c3ccc(-c4csc5ccccc45)cc32)cc1 [Example 628, {4-[(6-Benzo[b]thiophen-3-yl-1,3-dioxo-2,3-dihydro-1H-isoquinolin-4-ylidenemethyl)-amino]-phenyl}-acetonitrile]"
12,5.38,"N#CCc1ccc(NC=C2C(=O)NC(=O)c3ccc(-c4cc[nH]c4)cc32)cc1 [Example 631, (4-{[1,3-Dioxo-6-(1H-pyrrol-3-yl)-2,3-dihydro-1H-isoquinolin-4-ylidenemethyl]-amino}-phenyl)-acetonitrile]"
13,4.49,"NS(=O)(=O)c1ccc(CNC=C2C(=O)NC(=O)c3ccc(-c4cccc5cccnc45)cc32)cc1 [Example 633, 4-{[(1,3-Dioxo-6-quinolin-8-yl-2,3-dihydro-1H-isoquinolin-4-ylidenemethyl)-amino]-methyl}-benzenesulfonamide]"
14,4.66,"O=C1NC(=O)c2ccc(-c3cccc4ccccc34)cc2C1=CNCc1ccc(O)c(O)c1 [Example 640, 4-[(3,4-Dihydroxy-benzylamino)-methylene]-6-naphthalen-1-yl-4H-isoquinoline-1,3-dione]"
15,4.73,"N#CCc1ccc(NC=C2C(=O)NC(=O)c3ccc(C=Cc4ccccn4)cc32)cc1 [Example 648, (4-{[1,3-Dioxo-6-(2-pyridin-2-yl-vinyl)-2,3-dihydro-1H-isoquinolin-4-ylidenemethyl]-amino}-phenyl)-acetonitrile]"
16,4.70,"N#CCc1ccc(NC=C2C(=O)NC(=O)c3ccc(C=Cc4ccncc4)cc32)cc1 [Example 649, (4-{[1,3-Dioxo-6-(2-pyridin-4-yl-vinyl)-2,3-dihydro-1H-isoquinolin-4-ylidenemethyl]-amino}-phenyl)-acetonitrile]"
17,4.78,"N#CCc1ccc(NC=C2C(=O)NC(=O)c3ccc(C=Cc4ccccc4)cc32)cc1 [Example 650, {4-[(1,3-Dioxo-6-styryl-2,3-dihydro-1H-isoquinolin-4-ylidenemethyl)-amino]-phenyl}-acetonitrile]"
